Reference: patent publication US10323007B1, “N2N N4-disubstituted quinazoline-2,4-diamines and uses thereof” (University of South Florida, priority 2016, dated 2019)
Converted amounts (≈) assume the structure as drawn. Where two headings read alike, the source gives them in different places.

Experiments:
[1] = system: A. baumannii 1403; test: MIC assay, strain 1403; format: cell-based, Acinetobacter baumannii; settings: Acinetobacter baumannii, strain 1403
Procedure: (§1) MIC and MBC assays were performed in this study as documented by us previously.^17,23,24,25 The A. baumannii strains used are detailed in Table 7.

[2] = system: A. baumannii 1646; test: MIC assay, strain 1646; format: cell-based, Acinetobacter baumannii; settings: Acinetobacter baumannii
Procedure: as §1

[3] = system: A. baumannii 1649; test: MIC assay, strain 1649; format: cell-based, Acinetobacter baumannii; settings: Acinetobacter baumannii, strain 1649
Procedure: as §1

[4] = system: A. baumannii 1650; test: MIC assay, strain 1650; format: cell-based, Acinetobacter baumannii; settings: Acinetobacter baumannii, strain 1650
Procedure: as §1

[5] = system: A. baumannii 1651; test: MIC assay, strain 1651; format: cell-based, Acinetobacter baumannii; settings: Acinetobacter baumannii, strain 1651
Procedure: as §1

[6] = system: A. baumannii 1652; test: MIC assay, strain 1652; format: cell-based, Acinetobacter baumannii; settings: Acinetobacter baumannii, strain 1652
Procedure: as §1

[7] = system: A. baumannii 1403; test: minimal bactericidal concentration (MBC) assay, strain 1403; format: cell-based; settings: Acinetobacter baumannii, Table 8, read-out: MBC90 1403
Source text: (§2) Lead quinazolines 4, 5, 26, 29, 27, and 30 were selected to be further evaluated for antimicrobial effects. The first assay utilized was a minimal bactericidal concentration (MBC) assay, to assess whether leads compounds were bacteriostatic or bactericidal. The six lead agents were screened to identify their MBC90 towards each of the six A. baumannii isolates used in the SAR studies (Table 8), however for simplicity only the representative data for isolate 1646 is detailed below (Table 6). […] Further to this, we were able to obtain complete eradication of bacterial growth for these two compounds at 1 μM for 24 and 5 μM for 25.
as §1

[8] = system: A. baumannii 1646; test: minimal bactericidal concentration (MBC) assay, strain 1646; format: cell-based, Acinetobacter baumannii
Source text: as §2, §1

[9] = system: A. baumannii 1649; test: minimal bactericidal concentration (MBC) assay, strain 1649; format: cell-based; settings: Acinetobacter baumannii, Table 8, read-out: MBC90 1649
Source text: as §2, §1

[10] = system: A. baumannii 1650; test: minimal bactericidal concentration (MBC) assay, strain 1650; format: cell-based; settings: Acinetobacter baumannii, Table 8, read-out: MBC90 1650
Source text: as §2, §1

[11] = system: A. baumannii 1651; test: minimal bactericidal concentration (MBC) assay, strain 1651; format: cell-based; settings: Acinetobacter baumannii, Table 8, read-out: MBC90 1651
Source text: as §2, §1

[12] = system: A. baumannii 1652; test: minimal bactericidal concentration (MBC) assay, strain 1652; format: cell-based; settings: Acinetobacter baumannii, Table 8, read-out: MBC90 1652
Source text: as §2, §1

[13] = system: A. baumannii 1403 biofilm; test: biofilm eradication determination assay, strain 1403; format: cell-based, Acinetobacter baumannii; settings: 90% biofilm eradication, Table 8
Procedure: (§3) These assays were performed as described by us previously,^26,24 as follows. Each of the A. baumannii strains were grown overnight in Mueller Hinton Broth (MHB). The next day these were used to seed fresh MHB to an OD600 of 0.5, with 150 μL then added to the wells of a 96 well plate and grown for 24 hours at 37° C. After 24 hours, the planktonic bacteria were carefully removed and fresh MHB was added with increasing concentrations of lead quinazolines. After incubation at 37° C. for 24 hours, planktonic cells were removed and biofilms were washed three times with phosphate buffered saline (PBS). Biofilms were then resuspended in PBS and plated for cell viability on tryptic soy agar. Biofilm recovery was assessed compared to no drug controls, and determined as percent eradication. This was used to determine MBEC90 values (Minimal Biofilm Eradication Concentration), where the viability of cells within the biofilm was reduced by 90%.

[14] = system: A. baumannii 1646 biofilm; test: biofilm eradication determination assay, strain 1646; format: cell-based, Acinetobacter baumannii
Procedure: as §3

[15] = system: A. baumannii 1649 biofilm; test: biofilm eradication determination assay, strain 1649; format: cell-based, Acinetobacter baumannii; settings: 90% biofilm eradication, Table 8
Procedure: as §3

[16] = system: A. baumannii 1650 biofilm; test: biofilm eradication determination assay, strain 1650; format: cell-based, Acinetobacter baumannii; settings: 90% biofilm eradication, Table 8
Procedure: as §3

[17] = system: A. baumannii 1651 biofilm; test: biofilm eradication determination assay, strain 1651; format: cell-based, Acinetobacter baumannii; settings: 90% biofilm eradication, Table 8
Procedure: as §3

[18] = system: A. baumannii 1652 biofilm; test: biofilm eradication determination assay, strain 1652; format: cell-based, Acinetobacter baumannii; settings: 90% biofilm eradication, Table 8
Procedure: as §3

[19] = system: A. baumannii strain 1403; format: cell-based, Acinetobacter baumannii; settings: serial passage, 8 days, start 0.5× MIC
Procedure: An important attribute of novel antibiotics is the ability to fend off the development of resistance towards their effects. To assess this capacity, A. baumannii strains were incubated overnight with 0.5× MIC of each of the frontrunners. The next day cells were washed and used to inoculate fresh media that contained a two-fold increase in drug. This was repeated for a total of 8 days, alongside sulfamethoxazole (SMX) and trimethoprim (TMP) controls, both of which target the same pathway as our lead agents (FIG. 2).
In order to test potential resistance towards the quinazolines, a serial passage assay was performed alongside control compounds (Sulfamethoxazole and Trimethoprim), as described by us previously.^24 A. baumannii strain 1403 was grown overnight in LB media at 37° C. The next day cultures were diluted 1:100 in fresh media and seeded into a 96-well plate. Lead quinazolines or control agents were added to respective wells at half MIC concentrations. […] These were then grown overnight, and the procedure repeated for a total of eight days.

[20] = system: human HepG2 cells; format: cell-based
Procedure: Cytotoxicity assays were performed using human HepG2 cells (human liver epithelial with hepatocellular carcinoma), as described by us previously.^17,24 Cells were cultured in Dulbecco's modified eagle medium (DMEM), supplemented with 10% fetal bovine serum and 1% penicillin-streptomycin for 3 days at 37° C. and 5% CO2. Cells were then diluted to 1×10^5 ml^−1 using fresh DMEM and added to 96 well tissue culture plates at a volume of 100 μL. Plates were incubated for 24 hours at 37° C. and 5% CO2, allowing the cells to adhere to the plastic. […] Plates were then incubated for 48 hours at 37° C. and 5% CO2. After 48 hours the DMEM was removed and 100 μL of new media was added containing MTT (3-(4, 5-dimethylthiazol-2-yl)-2, 5-diphenyltetrazolium bromide), followed by incubation for four hours at 37° C. and 5% CO2. […] Lead compounds were solvated in 100% DMSO for these studies, which served as the negative control. LD50 values were determined for each compound by comparison to vehicle only controls.

[21] = system: human red blood cells
Procedure: A hemolysis assay was performed using whole human blood (Bioreclamation), as described previously.^24 Briefly, human red blood cells (hRBCs) were resuspended in 20% v/v 1×HA buffer (4.25 mL 10% NaCl; 1 mL CaCl2) in 50 mL sterile water), before lead compounds were added at 2 μM, 10 μM and 20 μM, in a final volume of 100 μL. Cells were incubated for 15 minutes at 37° C. before being centrifuged at 5,500 g for 1 minute to pellet non-lysed hRBCs. The supernatant was removed, added to a 96-well Microtiter plate and the OD543 read using a BioTek Synergy2 plate reader. The negative control was vehicle only (DMSO), and the positive control was 1% triton X-100.

[22] = system: A. baumannii dihydrofolate reductase (DHFR) enzyme; test: tetrahydrofolic acid in vitro rescue assay; format: cell-based; settings: tetrahydrofolic acid 0-225 μM; 24 hours incubation
Procedure: To evaluate the effect quinazolines have on DHFR reduction of dihydrofolic acid, a tetrahydrofolic acid assay was performed as described by us previously.^17 A. baumannii strain 1403 was grown overnight in LB, and then diluted 1:1000 into fresh media. These cultures were then seeded into a sterile 96-well plate with tetrahydrofolic acid added at concentrations ranging from 0 to 225 μM. […] MICs were determined and used to assess whether the addition of tetrahydrofolic acid rescued A. baumannii growth from quinazoline inhibition. Assays were repeated in triplicate, alongside trimethoprim and sulfamethoxazole controls.

CNc1nc(NCc2ccccc2)nc2ccc(Br)cc12 [Compound 4, N^2-Benzyl-6-bromo-N^4-methylquinazoline-2,4-diamine]
MIC ([1]; Table 2, read-out: 1403 MIC): 50 µM (≈ 17.2 µg/mL)
MIC ([1]; lead quinazolines, Table 8, read-out: MIC 1403): 25 µM (≈ 8.58 µg/mL)
MIC ([2]; Table 6, representative data for isolate 1646, read-out: MIC): 0.5 µM (≈ 0.172 µg/mL)
MIC ([2]; strain 1646, Table 2, read-out: 1646 MIC): 2 µM (≈ 0.686 µg/mL)
MIC ([2]; strain 1646, lead quinazolines, Table 8, read-out: MIC 1646): 0.5 µM (≈ 0.172 µg/mL)
MIC ([3]; Table 2, read-out: 1649 MIC): 12 µM (≈ 4.12 µg/mL)
MIC ([3]; lead quinazolines, Table 8, read-out: MIC 1649): 11 µM (≈ 3.78 µg/mL)
MIC ([4]; Table 2, read-out: 1650 MIC): 15 µM (≈ 5.15 µg/mL)
MIC ([4]; lead quinazolines, Table 8, read-out: MIC 1650): 12 µM (≈ 4.12 µg/mL)
MIC ([5]; Table 2, read-out: 1651 MIC): 8 µM (≈ 2.75 µg/mL)
MIC ([5]; lead quinazolines, Table 8, read-out: MIC 1651): 5 µM (≈ 1.72 µg/mL)
MIC ([6]; Table 2, read-out: 1652 MIC): 20 µM (≈ 6.86 µg/mL)
MIC ([6]; lead quinazolines, Table 8, read-out: MIC 1652): 20 µM (≈ 6.86 µg/mL)
MBC [7]: 22 µM (≈ 7.55 µg/mL)
MBC ([8]; Acinetobacter baumannii, 1646, strain 1646, Table 8 and text, read-out: MBC90 1646): 0.81 µM (≈ 0.278 µg/mL)
MBC ([8]; Acinetobacter baumannii, Table 6, representative data for isolate 1646, read-out: MBC90): 0.8 µM (≈ 0.275 µg/mL)
MBC [9]: 4.7 µM (≈ 1.61 µg/mL)
MBC [10]: 15 µM (≈ 5.15 µg/mL)
MBC [11]: 2.1 µM (≈ 0.721 µg/mL)
MBC [12]: 9.7 µM (≈ 3.33 µg/mL)
MBEC90 1403 [13]: 26 µM
MBEC90 ([14]; Table 6, representative data for isolate 1646): 3.3 µM
reduction in biofilm viability ([14]; at 50 μM, strain 1646): 3.6 log
MBEC90 1646 ([14]; strain 1646, 90% biofilm eradication, Table 8 and text): 3.3 µM
MBEC90 1649 [15]: 44.33 µM
MBEC90 1650 [16]: 9.61 µM
MBEC90 1651 [17]: 37.34 µM
MBEC90 1652 [18]: >100 µM
increase in MIC over the 8-day test period [19]: 4 fold
HepG2 cell viability ([20]; at 25 μM (highest concentration tested)): 43%
LD50(HepG2) ([20]; human, 48 h): 23 µM

Triton X-100
lysis of human red blood cells [21]: 100%

CNc1nc(NCc2ccccc2)nc2ccc(C(C)C)cc12 [Compound 25, N^2-Benzyl-6-isopropyl-N^4-methylquinazoline-2,4-diamine]
MIC ([1]; Tables 1, 3, 4, 5 and footnotes, read-out: 1403 MIC): > 50 µM
MIC ([2]; strain 1646, Tables 1, 3, 4, 5 and footnotes, read-out: 1646 MIC): 25 µM (≈ 7.66 µg/mL)
MIC ([3]; Tables 1, 3, 4, 5 and footnotes, read-out: 1649 MIC): 35 µM (≈ 10.7 µg/mL)
MIC ([4]; Tables 1, 3, 4, 5 and footnotes, read-out: 1650 MIC): > 50 µM
MIC ([5]; Tables 1, 3, 4, 5 and footnotes, read-out: 1651 MIC): 35 µM (≈ 10.7 µg/mL)
MIC ([6]; Tables 1, 3, 4, 5 and footnotes, read-out: 1652 MIC): > 50 µM
concentration giving complete eradication of bacterial growth ([8]; isolate 1646): 5 µM
THF concentration sufficient to rescue bacterial growth [22]: 10 µM
